Entries after “also recorded” stand apart in the source; their conditions may differ. Read-outs that look alike come from different tables or passages of the source.
Assays:
HepG2 cells [1] = tested on: HepG2 cells; set-up: method as in PMID 28087808; details: cited from earlier work
HepG2 cells [2] = assay: Cytotoxicity seen in HepG2 cell treatment; details: higher concentrations
LXRα [3] = biological target: T1, LXRα (Homo sapiens, UniProt Q13133); details: ligand alone, normalized to T0 (100%)
T1 sequence (Q13133 209-447 limits assumed): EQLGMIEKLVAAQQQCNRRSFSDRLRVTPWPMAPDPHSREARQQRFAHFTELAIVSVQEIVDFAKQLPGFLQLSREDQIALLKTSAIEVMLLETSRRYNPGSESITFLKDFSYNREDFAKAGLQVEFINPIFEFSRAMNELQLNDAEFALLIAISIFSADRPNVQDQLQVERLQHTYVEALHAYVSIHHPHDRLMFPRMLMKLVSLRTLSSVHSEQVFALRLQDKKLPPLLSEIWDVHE

LXRβ [4] = biological target: T2, LXRβ (Homo sapiens, UniProt P55055); details: for LXR isoform selectivity, SRC-1 recruitment: LXRβ versus LXRα
T2 sequence (P55055 222-460 limits assumed): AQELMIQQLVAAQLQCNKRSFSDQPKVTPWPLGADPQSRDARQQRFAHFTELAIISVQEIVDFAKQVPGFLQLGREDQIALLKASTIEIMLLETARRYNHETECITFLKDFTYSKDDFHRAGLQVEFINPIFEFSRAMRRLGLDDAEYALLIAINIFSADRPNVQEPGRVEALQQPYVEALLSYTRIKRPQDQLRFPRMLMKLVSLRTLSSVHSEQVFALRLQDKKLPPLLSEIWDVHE

LXRα [5] = biological target: T1, LXRα; assay: Corepressor (NCOR2, SMRT2) binding CRT, LXRα; details: absence of coactivator
HepG2 cells [6] = tested on: HepG2 cells
LXRβ [7] = biological target: T2, LXRβ; assay: Corepressor (NCOR2, SMRT2) binding CRT, LXRβ; details: absence of coactivator
[8] = po; cited from earlier work
hamsters = tested on: hamsters; set-up: method as in PMID 16024916; details: cited from earlier work
C57Bl/6 mice = tested on: C57Bl/6 mice; set-up: method as in PMID 15145986; details: cited from earlier work
LXRα [9] = biological target: T1, LXRα; set-up: NR-LBD with short coregulator peptides as used in the present work; purchased Thermo Fisher Scientific PV4657; method as in PMID 16354658; details: CRT; cited from earlier work
cynomolgus monkeys = tested on: cynomolgus monkeys; set-up: method as in PMID 16024916; details: cited from earlier work
PXR = PXR (Homo sapiens, UniProt O75469); assay: Lanthascreen CRT, SRC1-4 recruitment to PXR; format: biochemical; details: SRC1-4 coactivator
LXRα [10] = biological target: T1, LXRα; assay: Multiplex precision CRT (pCRT), SRC1 and NCoR2, LXRα; format: biochemical; set-up: NR-LBD with short coregulator peptides as used in the present work; purchased Thermo Fisher Scientific PV4657; details: isoform not given
LXRβ [11] = biological target: T2, LXRβ; assay: Multiplex precision CRT (pCRT), SRC1 and NCoR2, LXRβ; format: biochemical; set-up: NR-LBD with short coregulator peptides as used in the present work; purchased Thermo Fisher Scientific PV4660; details: isoform not given

PXR, sequence (O75469 146-433 limits assumed): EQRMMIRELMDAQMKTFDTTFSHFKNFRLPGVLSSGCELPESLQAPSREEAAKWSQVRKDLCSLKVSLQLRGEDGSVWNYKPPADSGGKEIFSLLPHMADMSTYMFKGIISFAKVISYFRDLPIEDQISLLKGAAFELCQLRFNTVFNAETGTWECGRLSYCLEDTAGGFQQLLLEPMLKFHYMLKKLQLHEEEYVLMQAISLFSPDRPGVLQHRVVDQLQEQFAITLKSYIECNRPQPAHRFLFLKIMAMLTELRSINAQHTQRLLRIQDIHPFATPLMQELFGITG

## CN(CC(=O)Nc1ccc(F)c(F)c1F)C(=O)c1ccc2c(c1)OCCO2 [IMB-808]
HepG2 cells [1]
  Lipogenicity in HepG2 cells: nonlipogenic in HepG2 cells

## CC(C)C(O)CC[C@@H](C)[C@H]1CC[C@H]2[C@@H]3CC=C4C[C@@H](O)CC[C@]4(C)[C@H]3CC[C@]12C (stereo partly drawn) [24HC, 24-hydroxycholesterol]
HepG2 cells [2]
  Cytotoxicity: cytotoxic at higher concentrations
LXRα [3]
  SRC-1 recruitment to LXRα, efficacy relative to T0: partial agonist
LXRβ [4]
  LXR isoform selectivity, SRC-1 recruitment: nonselective
LXRβ [4]; ligand alone, normalized to T0 (100%)
  SRC-1 recruitment to LXRβ, efficacy/potency relative to T0: partial agonist

## CC(CCC(=O)N(C)C)C1CCC2C3CC=C4CC(O)CCC4(C)C3CCC12C (stereo not drawn) [DMHCA, N,N-dimethyl-3β-hydroxy-cholenamide]
LXRα [5]
  NCOR2 binding to LXRα, ligand effect: little or no effect
HepG2 cells [6]
  Cytotoxicity: cytotoxic at higher concentrations
LXRβ [7]
  NCOR2 binding to LXRβ, ligand effect: little or no effect; also recorded: does not displace NCOR2 from LXRβ in the absence of SRC1
LXRα [3]
  SRC-1 recruitment to LXRα, efficacy relative to T0: partial agonist activity at LXRα
[8]
  Metabolic lability and oral bioavailability: metabolically labile with poor oral bioavailability
LXRβ [4]
  LXR isoform selectivity, SRC-1 recruitment: nonselective

## O=C(O)Cc1cccc(OCCCN(Cc2cccc(C(F)(F)F)c2Cl)CC(c2ccccc2)c2ccccc2)c1 [GW3965]
hamsters
  Plasma TG, LDL-C and VLDL-C: dose-dependent increase
C57Bl/6 mice; 3 days treatment, GW3965 even at 100mg/kg/day
  Liver weight and TGs: no effect on these liver markers
C57Bl/6 mice; 3 days treatment
  SREBP1c and FAS expression in the liver: minimal increases in SREBP1c and FAS expression in the liver
C57Bl/6 mice; peripheral macrophages
  ABCA1 expression increase, peripheral macrophages: 7 fold
C57Bl/6 mice; small intestine
  ABCA1 expression increase, small intestine: 8 fold
LXRα [9]
  Concentration for weak recruitment of NCOR1 to LXRα: > 1 µM
Cynomolgus monkeys
  TG and LDL: no effect on TG
PXR
  PXR agonism/binding in CRT: no binding to PXR
LXRα [10]
  Left-shift in the NCOR2 displacement curve, pCRT versus CRT: 100 fold
LXRβ [11]
  Left-shift in the NCOR2 displacement curve, pCRT versus CRT: 100 fold

— article doi:10.1101/2025.09.12.675753, “In search of nonlipogenic ABCA1 inducers (NLAI): precision coregulator TR-FRET identifies diverse signatures for LXR ligands” (bioRxiv, 2025)
